Test results as given in ChEMBL document CHEMBL3739401, “Synthesis, in vitro, and in vivo evaluation of novel functionalized quaternary ammonium curcuminoids as potential anti-cancer agents” (Bioorg Med Chem Lett, 2015).
The source made the active and inactive calls. No cut-off for these calls is given here.

System: MDA-MB-231
Assay: Cytotoxicity against human MDA-MB-231 cells at 20 to 50 uM by MTT assay
Assay type: functional, cell-based
Details: not given

| Structure (SMILES) | Activity |
| --- | --- |
| C=C(CBr)C(=O)OC | Active |
| COC(=O)/C(=C/c1ccccc1)CBr | Active |

System: MDA-MB-231
Assay: Cytotoxicity against human MDA-MB-231 cells upto 50 uM by MTT assay
Assay type: functional, cell-based
Details: not given

| Structure (SMILES) | Activity |
| --- | --- |
| C=C(C(=O)OC)C(O)c1ccccc1 (configuration not stated) | inactive |

System: not listed separately
Assay: Aqueous solubility of compound
Assay type: physicochemical
Details: water

| Structure (SMILES) | solubility |
| --- | --- |
| C=CC[N+]1(C)CCOCC1 | > 100 mg/mL |
| C=C(C[N+]1(C)CCOCC1)C(=O)OC | > 100 mg/mL |
| C=CC[N+]1(C)CCN(c2ccc(/C=C/C(=O)/C=C(O)/C=C/c3ccc(N4CC[N+](C)(CC=C)CC4)cc3)cc2)CC1.[Br-].[Br-] | 15 mg/mL |
| C[N+]1(Cc2ccccc2)CCOCC1 | > 100 mg/mL |
| COC(=O)/C(=C\c1ccccc1)C[N+]1(C)CCN(c2ccc(/C=C/C(=O)/C=C(O)/C=C/c3ccc(N4CC[N+](C)(C/C(=C/c5ccccc5)C(=O)OC)CC4)cc3)cc2)CC1.[Br-].[Br-] | 1 mg/mL |
| C=C(C[N+]1(C)CCN(c2ccc(/C=C/C(=O)/C=C(O)/C=C/c3ccc(N4CC[N+](C)(CC(=C)C(=O)OCCCCCC)CC4)cc3)cc2)CC1)C(=O)OCCCCCC.[Br-].[Br-] | 1 mg/mL |
| C=C(C[N+]1(C)CCN(c2ccc(/C=C/C(=O)/C=C(O)/C=C/c3ccc(N4CC[N+](C)(CC(=C)C(=O)OCCCC)CC4)cc3)cc2)CC1)C(=O)OCCCC.[Br-].[Br-] | 1 mg/mL |
| C=C(C[N+]1(C)CCN(c2ccc(/C=C/C(=O)/C=C(O)/C=C/c3ccc(N4CC[N+](C)(CC(=C)C(=O)OC)CC4)cc3)cc2)CC1)C(=O)OC.[Br-].[Br-] | 1 mg/mL |
| C[N+]1(Cc2ccccc2)CCN(c2ccc(/C=C/C(=O)/C=C(O)/C=C/c3ccc(N4CC[N+](C)(Cc5ccccc5)CC4)cc3)cc2)CC1.[Br-].[Br-] | 15 mg/mL |
| C=C(C[N+]1(C)CCN(c2ccc(/C=C/C(=O)/C=C(O)/C=C/c3ccc(N4CC[N+](C)(CC(=C)C(=O)N(C)C)CC4)cc3)cc2)CC1)C(=O)N(C)C.[Br-].[Br-] | 1 mg/mL |

System: MDA-MB-231
Assay: Cytotoxicity against human MDA-MB-231 cells by MTT assay
Assay type: functional, cell-based
Details: not given

| Structure (SMILES) | IC50 |
| --- | --- |
| C=CC[N+]1(C)CCN(c2ccc(/C=C/C(=O)/C=C(O)/C=C/c3ccc(N4CC[N+](C)(CC=C)CC4)cc3)cc2)CC1.[Br-].[Br-] | > 100 µM |
| CN1CCN(c2ccc(/C=C/C(=O)/C=C(O)/C=C/c3ccc(N4CCN(C)CC4)cc3)cc2)CC1 | > 100 µM |
| O=C(/C=C(O)/C=C/c1ccc(N2CCN(CCO)CC2)cc1)/C=C/c1ccc(N2CCN(CCO)CC2)cc1 | > 100 µM |
| COC(=O)/C(=C\c1ccccc1)C[N+]1(C)CCN(c2ccc(/C=C/C(=O)/C=C(O)/C=C/c3ccc(N4CC[N+](C)(C/C(=C/c5ccccc5)C(=O)OC)CC4)cc3)cc2)CC1.[Br-].[Br-] | 6.2 µM |
| C=C(C[N+]1(C)CCN(c2ccc(/C=C/C(=O)/C=C(O)/C=C/c3ccc(N4CC[N+](C)(CC(=C)C(=O)OCCCCCC)CC4)cc3)cc2)CC1)C(=O)OCCCCCC.[Br-].[Br-] | 4.2 µM |
| C=C(C[N+]1(C)CCN(c2ccc(/C=C/C(=O)/C=C(O)/C=C/c3ccc(N4CC[N+](C)(CC(=C)C(=O)OCCCC)CC4)cc3)cc2)CC1)C(=O)OCCCC.[Br-].[Br-] | 3.7 µM |
| COc1cc(/C=C/C(=O)CC(=O)/C=C/c2ccc(O)c(OC)c2)ccc1O [CURCUMIN] | 15 µM |
| C=C(C[N+]1(C)CCN(c2ccc(/C=C/C(=O)/C=C(O)/C=C/c3ccc(N4CC[N+](C)(CC(=C)C(=O)OC)CC4)cc3)cc2)CC1)C(=O)OC.[Br-].[Br-] | 3.6 µM |
| C[N+]1(Cc2ccccc2)CCN(c2ccc(/C=C/C(=O)/C=C(O)/C=C/c3ccc(N4CC[N+](C)(Cc5ccccc5)CC4)cc3)cc2)CC1.[Br-].[Br-] | > 100 µM |
| C=C(C[N+]1(C)CCN(c2ccc(/C=C/C(=O)/C=C(O)/C=C/c3ccc(N4CC[N+](C)(CC(=C)C(=O)N(C)C)CC4)cc3)cc2)CC1)C(=O)N(C)C.[Br-].[Br-] | 15.1 µM |

System: not listed separately
Assay: Cytotoxicity against human MIAPaCa2 cells by MTT assay
Assay type: functional, cell-based
Details: MIA PaCa-2

| Structure (SMILES) | IC50 |
| --- | --- |
| C=CC[N+]1(C)CCN(c2ccc(/C=C/C(=O)/C=C(O)/C=C/c3ccc(N4CC[N+](C)(CC=C)CC4)cc3)cc2)CC1.[Br-].[Br-] | > 100 µM |
| CN1CCN(c2ccc(/C=C/C(=O)/C=C(O)/C=C/c3ccc(N4CCN(C)CC4)cc3)cc2)CC1 | > 100 µM |
| O=C(/C=C(O)/C=C/c1ccc(N2CCN(CCO)CC2)cc1)/C=C/c1ccc(N2CCN(CCO)CC2)cc1 | > 100 µM |
| COC(=O)/C(=C\c1ccccc1)C[N+]1(C)CCN(c2ccc(/C=C/C(=O)/C=C(O)/C=C/c3ccc(N4CC[N+](C)(C/C(=C/c5ccccc5)C(=O)OC)CC4)cc3)cc2)CC1.[Br-].[Br-] | 4.1 µM |
| C=C(C[N+]1(C)CCN(c2ccc(/C=C/C(=O)/C=C(O)/C=C/c3ccc(N4CC[N+](C)(CC(=C)C(=O)OCCCCCC)CC4)cc3)cc2)CC1)C(=O)OCCCCCC.[Br-].[Br-] | 4.2 µM |
| C=C(C[N+]1(C)CCN(c2ccc(/C=C/C(=O)/C=C(O)/C=C/c3ccc(N4CC[N+](C)(CC(=C)C(=O)OCCCC)CC4)cc3)cc2)CC1)C(=O)OCCCC.[Br-].[Br-] | 4.4 µM |
| COc1cc(/C=C/C(=O)CC(=O)/C=C/c2ccc(O)c(OC)c2)ccc1O [CURCUMIN] | 20 µM |
| C=C(C[N+]1(C)CCN(c2ccc(/C=C/C(=O)/C=C(O)/C=C/c3ccc(N4CC[N+](C)(CC(=C)C(=O)OC)CC4)cc3)cc2)CC1)C(=O)OC.[Br-].[Br-] | 2.7 µM |
| C[N+]1(Cc2ccccc2)CCN(c2ccc(/C=C/C(=O)/C=C(O)/C=C/c3ccc(N4CC[N+](C)(Cc5ccccc5)CC4)cc3)cc2)CC1.[Br-].[Br-] | > 100 µM |
| C=C(C[N+]1(C)CCN(c2ccc(/C=C/C(=O)/C=C(O)/C=C/c3ccc(N4CC[N+](C)(CC(=C)C(=O)N(C)C)CC4)cc3)cc2)CC1)C(=O)N(C)C.[Br-].[Br-] | 14.2 µM |

System: 4T1
Assay: Cytotoxicity against mouse 4T1 cells by MTT assay
Assay type: functional, cell-based
Details: not given

| Structure (SMILES) | IC50 |
| --- | --- |
| C=CC[N+]1(C)CCN(c2ccc(/C=C/C(=O)/C=C(O)/C=C/c3ccc(N4CC[N+](C)(CC=C)CC4)cc3)cc2)CC1.[Br-].[Br-] | > 100 µM |
| CN1CCN(c2ccc(/C=C/C(=O)/C=C(O)/C=C/c3ccc(N4CCN(C)CC4)cc3)cc2)CC1 | > 100 µM |
| O=C(/C=C(O)/C=C/c1ccc(N2CCN(CCO)CC2)cc1)/C=C/c1ccc(N2CCN(CCO)CC2)cc1 | > 100 µM |
| COC(=O)/C(=C\c1ccccc1)C[N+]1(C)CCN(c2ccc(/C=C/C(=O)/C=C(O)/C=C/c3ccc(N4CC[N+](C)(C/C(=C/c5ccccc5)C(=O)OC)CC4)cc3)cc2)CC1.[Br-].[Br-] | 5 µM |
| C=C(C[N+]1(C)CCN(c2ccc(/C=C/C(=O)/C=C(O)/C=C/c3ccc(N4CC[N+](C)(CC(=C)C(=O)OCCCCCC)CC4)cc3)cc2)CC1)C(=O)OCCCCCC.[Br-].[Br-] | 3.4 µM |
| C=C(C[N+]1(C)CCN(c2ccc(/C=C/C(=O)/C=C(O)/C=C/c3ccc(N4CC[N+](C)(CC(=C)C(=O)OCCCC)CC4)cc3)cc2)CC1)C(=O)OCCCC.[Br-].[Br-] | 4.1 µM |
| COc1cc(/C=C/C(=O)CC(=O)/C=C/c2ccc(O)c(OC)c2)ccc1O [CURCUMIN] | 20 µM |
| C=C(C[N+]1(C)CCN(c2ccc(/C=C/C(=O)/C=C(O)/C=C/c3ccc(N4CC[N+](C)(CC(=C)C(=O)OC)CC4)cc3)cc2)CC1)C(=O)OC.[Br-].[Br-] | 4.1 µM |
| C[N+]1(Cc2ccccc2)CCN(c2ccc(/C=C/C(=O)/C=C(O)/C=C/c3ccc(N4CC[N+](C)(Cc5ccccc5)CC4)cc3)cc2)CC1.[Br-].[Br-] | > 100 µM |
| C=C(C[N+]1(C)CCN(c2ccc(/C=C/C(=O)/C=C(O)/C=C/c3ccc(N4CC[N+](C)(CC(=C)C(=O)N(C)C)CC4)cc3)cc2)CC1)C(=O)N(C)C.[Br-].[Br-] | 17.2 µM |

System: Mus musculus
Assay: Toxicity in CD-1 mouse assessed as effect on body weight at 30 mg/kg, ip bid
Assay type: organism-based
Details: in vivo

| Structure (SMILES) | Activity |
| --- | --- |
| C=C(C[N+]1(C)CCN(c2ccc(/C=C/C(=O)/C=C(O)/C=C/c3ccc(N4CC[N+](C)(CC(=C)C(=O)OC)CC4)cc3)cc2)CC1)C(=O)OC.[Br-].[Br-] | Non-toxic |

System: Mus musculus
Assay: Toxicity in CD-1 mouse assessed as effect on body weight at 50 mg/kg, ip measured after 7 days
Assay type: organism-based
Details: in vivo, 168 h

| Structure (SMILES) | Activity |
| --- | --- |
| C=C(C[N+]1(C)CCN(c2ccc(/C=C/C(=O)/C=C(O)/C=C/c3ccc(N4CC[N+](C)(CC(=C)C(=O)OC)CC4)cc3)cc2)CC1)C(=O)OC.[Br-].[Br-] | Non-toxic |

System: Mus musculus
Assay: Toxicity in CD-1 mouse assessed as survival at 30 mg/kg, ip bid
Assay type: organism-based
Details: in vivo

| Structure (SMILES) | Activity |
| --- | --- |
| C=C(C[N+]1(C)CCN(c2ccc(/C=C/C(=O)/C=C(O)/C=C/c3ccc(N4CC[N+](C)(CC(=C)C(=O)OC)CC4)cc3)cc2)CC1)C(=O)OC.[Br-].[Br-] | Non-toxic |

System: Mus musculus
Assay: Toxicity in CD-1 mouse assessed as survival at 50 mg/kg, ip measured after 7 days
Assay type: organism-based
Details: in vivo, 168 h

| Structure (SMILES) | Activity |
| --- | --- |
| C=C(C[N+]1(C)CCN(c2ccc(/C=C/C(=O)/C=C(O)/C=C/c3ccc(N4CC[N+](C)(CC(=C)C(=O)OC)CC4)cc3)cc2)CC1)C(=O)OC.[Br-].[Br-] | Non-toxic |

System: Mus musculus
Assay: Toxicity in CD-1 mouse assessed as sign of stress at 30 mg/kg, ip bid
Assay type: organism-based
Details: in vivo

| Structure (SMILES) | Activity |
| --- | --- |
| C=C(C[N+]1(C)CCN(c2ccc(/C=C/C(=O)/C=C(O)/C=C/c3ccc(N4CC[N+](C)(CC(=C)C(=O)OC)CC4)cc3)cc2)CC1)C(=O)OC.[Br-].[Br-] | Non-toxic |

System: Mus musculus
Assay: Toxicity in CD-1 mouse assessed as sign of stress at 50 mg/kg, ip measured after 7 days
Assay type: organism-based
Details: in vivo, 168 h

| Structure (SMILES) | Activity |
| --- | --- |
| C=C(C[N+]1(C)CCN(c2ccc(/C=C/C(=O)/C=C(O)/C=C/c3ccc(N4CC[N+](C)(CC(=C)C(=O)OC)CC4)cc3)cc2)CC1)C(=O)OC.[Br-].[Br-] | Non-toxic |

System: not listed separately
Assay: Antitumor activity against human MIAPaCa2 cells xenografted in athymic nude mouse assessed as tumor growth inhibition at 40 mg/kg, ip bid
Assay type: functional
Details: MIA PaCa-2, ip, read-out: TGI

| Structure (SMILES) | inhibition in vivo at 40 mg/kg |
| --- | --- |
| C=C(C[N+]1(C)CCN(c2ccc(/C=C/C(=O)/C=C(O)/C=C/c3ccc(N4CC[N+](C)(CC(=C)C(=O)OC)CC4)cc3)cc2)CC1)C(=O)OC.[Br-].[Br-] | 42% |

System: not listed separately
Assay: Antitumor activity against human MIAPaCa2 cells xenografted in athymic nude mouse assessed as tumor growth inhibition at 100 mg/kg, ip twice weekly
Assay type: functional
Details: MIA PaCa-2, ip, read-out: TGI

| Structure (SMILES) | inhibition in vivo at 100 mg/kg |
| --- | --- |
| Nc1ccn([C@@H]2O[C@H](CO)[C@@H](O)C2(F)F)c(=O)n1 [GEMCITABINE] | 47% |

System: not listed separately
Assay: Antitumor activity against human MIAPaCa2 cells xenografted in athymic nude mouse assessed as tumor growth inhibition at 40 mg/kg, ip bid cotreated with gemcitabine (100 mg/kg, ip twice weekly
Assay type: functional, MIA PaCa-2
Details: not given

| Structure (SMILES) | TGI |
| --- | --- |
| C=C(C[N+]1(C)CCN(c2ccc(/C=C/C(=O)/C=C(O)/C=C/c3ccc(N4CC[N+](C)(CC(=C)C(=O)OC)CC4)cc3)cc2)CC1)C(=O)OC.[Br-].[Br-] | 57% |
